# Test results from US20220002314A1 (priority 2018, published 2022).
# Like-named read-outs stand apart in the source and are kept apart here.
# What was measured:
# [1] = target: Human μ-opioid receptor (Homo sapiens, UniProt P35372); assay: biochemical; assay type: binding
# [2] = target: Human α2δ-1 subunit of Cav2.2 calcium channel (Homo sapiens, UniProt P54289); assay: biochemical; assay type: binding
# Sequence of Human α2δ-1 subunit of Cav2.2 calcium channel (P54289 25-1103): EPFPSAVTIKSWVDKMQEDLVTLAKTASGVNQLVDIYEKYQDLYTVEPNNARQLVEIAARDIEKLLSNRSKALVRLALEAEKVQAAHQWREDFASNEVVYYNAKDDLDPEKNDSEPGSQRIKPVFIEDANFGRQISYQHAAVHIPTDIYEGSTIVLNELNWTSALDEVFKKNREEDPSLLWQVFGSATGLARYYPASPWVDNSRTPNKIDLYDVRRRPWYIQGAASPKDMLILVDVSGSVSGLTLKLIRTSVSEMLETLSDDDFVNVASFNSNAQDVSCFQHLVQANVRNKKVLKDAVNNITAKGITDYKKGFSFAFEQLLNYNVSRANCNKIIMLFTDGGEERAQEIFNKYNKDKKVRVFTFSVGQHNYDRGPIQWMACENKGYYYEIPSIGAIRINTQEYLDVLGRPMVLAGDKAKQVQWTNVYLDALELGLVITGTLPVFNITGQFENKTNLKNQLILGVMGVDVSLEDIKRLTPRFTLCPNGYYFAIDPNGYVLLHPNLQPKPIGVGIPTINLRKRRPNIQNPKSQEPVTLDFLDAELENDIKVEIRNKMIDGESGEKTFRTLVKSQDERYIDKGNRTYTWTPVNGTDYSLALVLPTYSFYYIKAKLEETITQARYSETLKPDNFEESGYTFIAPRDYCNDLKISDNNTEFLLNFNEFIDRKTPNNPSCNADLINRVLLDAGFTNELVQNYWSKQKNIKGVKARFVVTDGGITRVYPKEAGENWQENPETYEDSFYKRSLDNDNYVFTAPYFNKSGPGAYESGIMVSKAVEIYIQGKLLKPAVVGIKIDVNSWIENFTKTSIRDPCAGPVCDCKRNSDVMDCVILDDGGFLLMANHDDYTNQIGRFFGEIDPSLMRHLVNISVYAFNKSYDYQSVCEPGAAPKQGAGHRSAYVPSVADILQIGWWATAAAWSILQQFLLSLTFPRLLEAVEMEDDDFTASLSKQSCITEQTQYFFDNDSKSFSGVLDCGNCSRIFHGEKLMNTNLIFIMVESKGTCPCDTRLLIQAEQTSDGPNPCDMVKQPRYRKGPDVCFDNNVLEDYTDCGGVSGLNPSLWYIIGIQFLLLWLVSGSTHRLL
# Sequence of Human μ-opioid receptor (P35372 whole entry): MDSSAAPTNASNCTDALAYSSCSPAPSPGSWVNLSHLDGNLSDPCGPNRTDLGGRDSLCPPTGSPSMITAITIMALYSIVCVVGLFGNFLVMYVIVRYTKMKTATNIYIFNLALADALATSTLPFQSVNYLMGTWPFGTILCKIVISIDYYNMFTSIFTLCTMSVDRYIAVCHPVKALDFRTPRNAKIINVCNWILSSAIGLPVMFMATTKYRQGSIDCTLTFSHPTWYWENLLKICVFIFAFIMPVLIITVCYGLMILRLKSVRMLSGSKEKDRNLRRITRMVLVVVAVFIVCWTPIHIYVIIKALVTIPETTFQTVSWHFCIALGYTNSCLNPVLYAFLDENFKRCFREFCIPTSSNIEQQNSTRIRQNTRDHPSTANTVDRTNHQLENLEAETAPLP
SMILES,Ki [1] [nM],Ki [2] [nM],Ki ([1]; read-out: μ-binding) [nM],Ki ([2]; read-out: α2δ-1 binding) [nM]
"CCC[C@H](c1nc2ccc(NCC[C@]3(c4ccccn4)CCOC4(CCCC4)C3)cc2c(=O)n1CC)N1C[C@@H](C)N[C@@H](C)C1 [Example 159, 2-((R)-1-((3S,5R)-3,5-dimethylpiperazin-1-yl)butyl)-3-ethyl-6-((2-((S)-9-(pyridin-2-yl)-6-oxaspiro[4.5]decan-9-yl)ethyl)amino)quinazolin-4(3H)-one]",> 500,500 to 5000,,
"CCC[C@H](c1nc2ccc(NCC[C@@]3(c4ccccn4)CCOC4(CCCC4)C3)cc2c(=O)n1CC)N1C[C@@H](C)N[C@@H](C)C1 [Example 160, 2-((R)-1-((3S,5R)-3,5-dimethylpiperazin-1-yl)butyl)-3-ethyl-6-((2-((R)-9-(pyridin-2-yl)-6-oxaspiro[4.5]decan-9-yl)ethyl)amino)quinazolin-4(3H)-one]",> 500,< 500,,
"CCC[C@@H](c1nc2ccc(NCC[C@]3(c4ccccn4)CCOC4(CCCC4)C3)cc2c(=O)n1CC)N1C[C@@H](C)N[C@@H](C)C1 [Example 161, 2-((S)-1-((3S,5R)-3,5-dimethylpiperazin-1-yl)butyl)-3-ethyl-6-((2-((S)-9-(pyridin-2-yl)-6-oxaspiro[4.5]decan-9-yl)ethyl)amino)quinazolin-4(3H)-one]",> 500,> 5000,,
"CCCC(c1nc2c(Br)c(N(Cc3cccc(OC)c3)C(=O)OC(C)(C)C)ccc2c(=O)n1CC)N1C[C@@H](C)N[C@@H](C)C1 (stereo partly drawn) [Example 162, tert-Butyl (8-bromo-2-(1-((3S,5R)-3,5-dimethylpiperazin-1-yl)butyl)-3-ethyl-4-oxo-3,4-dihydroquinazolin-7-yl)(3-methoxybenzyl)carbamate]",,,> 500,500 to 5000
"CCC[C@@H](c1nc2cc(O[C@H](CCNC)c3ccccc3)ccc2c(=O)n1C)N1C[C@@H](C)N[C@@H](C)C1 [Example 164, 2-((S)-1-((3S,5R)-3,5-Dimethylpiperazin-1-yl)butyl)-3-methyl-7-((R)-3-(methylamino)-1-phenylpropoxy)quinazolin-4(3H)-one]",> 500,500 to 5000,,
"CCC[C@H](c1nc2cc(O[C@H](CCNC)c3ccccc3)ccc2c(=O)n1C)N1C[C@@H](C)N[C@@H](C)C1 [Example 165, 2-((R)-1-((3S,5R)-3,5-dimethylpiperazin-1-yl)butyl)-3-methyl-7-((R)-3-(methylamino)-1-phenylpropoxy)quinazolin-4(3H)-one]",> 500,500 to 5000,,
"CCC[C@@H](c1nc2cc(O[C@@H](CCNC)c3ccccc3)ccc2c(=O)n1C)N1C[C@@H](C)N[C@@H](C)C1 [Example 166, 2-((S)-1-((3S,5R)-3,5-dimethylpiperazin-1-yl)butyl)-3-methyl-7-((S)-3-(methylamino)-1-phenylpropoxy)quinazolin-4(3H)-one]",> 500,< 500,,
"CCC[C@H](c1nc2cc(O[C@@H](CCNC)c3ccccc3)ccc2c(=O)n1C)N1C[C@@H](C)N[C@@H](C)C1 [Example 167, 2-((R)-1-((3S,5R)-3,5-dimethylpiperazin-1-yl)butyl)-3-methyl-7-((S)-3-(methylamino)-1-phenylpropoxy)quinazolin-4(3H)-one]",> 500,< 500,,
"CCC[C@@H](c1nc2cc(O[C@H](CNC)c3ccccc3)ccc2c(=O)n1C)N1C[C@@H](C)N[C@@H](C)C1 [Example 168, 2-((S)-1-((3S,5R)-3,5-dimethylpiperazin-1-yl)butyl)-3-methyl-7-((S)-2-(methylamino)-1-phenylethoxy)quinazolin-4(3H)-one]",> 500,500 to 5000,,
"CCC[C@H](c1nc2cc(O[C@@H](CNC)c3ccccc3)ccc2c(=O)n1C)N1C[C@@H](C)N[C@@H](C)C1 [Example 169, 2-((R)-1-((3S,5R)-3,5-dimethylpiperazin-1-yl)butyl)-3-methyl-7-((R)-2-(methylamino)-1-phenylethoxy)quinazolin-4(3H)-one]",> 500,500 to 5000,,
"CCC[C@H](c1nc2cc(O[C@H](CNC)c3ccccc3)ccc2c(=O)n1C)N1C[C@@H](C)N[C@@H](C)C1 [Example 170, 2-((R)-1-((3S,5R)-3,5-dimethylpiperazin-1-yl)butyl)-3-methyl-7-((S)-2-(methylamino)-1-phenylethoxy)quinazolin-4(3H)-one]",> 500,< 500,,
"CCC[C@@H](c1nc2cc(O[C@@H](CNC)c3ccccc3)ccc2c(=O)n1C)N1C[C@@H](C)N[C@@H](C)C1 [Example 171, 2-((S)-1-((3S,5R)-3,5-dimethylpiperazin-1-yl)butyl)-3-methyl-7-((R)-2-(methylamino)-1-phenylethoxy)quinazolin-4(3H)-one]",> 500,500 to 5000,,
"CCCC(c1nc2cc(CO)ccc2c(=O)n1C)N1C[C@@H](C)N[C@@H](C)C1 (stereo partly drawn) [Example 172, 2-(1-((3S,5R)-3,5-Dimethylpiperazin-1-yl)butyl)-7-(hydroxymethyl)-3-methylquinazolin-4(3H)-one]",> 500,< 500,,
"CCCC(c1nc2ccc(CCO)cc2c(=O)n1CC)N1C[C@@H](C)N[C@@H](C)C1 (stereo partly drawn) [Example 173, 2-(1-((3S,5R)-3,5-Dimethylpiperazin-1-yl)butyl)-3-ethyl-6-(2-hydroxyethyl)quinazolin-4(3H)-one]",> 500,< 500,,
"CCCC(c1nc2ccc(CCN(C)Cc3ccccc3)cc2c(=O)n1CC)N1C[C@@H](C)N[C@@H](C)C1 (stereo partly drawn) [Example 174, 6-(2-(Benzyl(methyl)amino)ethyl)-2-(1-((3S,5R)-3,5-dimethylpiperazin-1-yl)butyl)-3-ethylquinazolin-4(3H)-one]",> 500,< 500,,
"CCCC(c1nc2ccc(CCN(C)CCC(C)C)cc2c(=O)n1CC)N1C[C@@H](C)N[C@@H](C)C1 (stereo partly drawn) [Example 175, 2-(1-((3S,5R)-3,5-dimethylpiperazin-1-yl)butyl)-3-ethyl-6-(2-(isopentyl(methyl)amino)ethyl)quinazolin-4(3H)-one]",> 500,< 500,,
"CCCC(c1nc2cc(C#N)ccc2c(=O)n1C)N1C[C@@H](C)N[C@@H](C)C1 (stereo partly drawn) [Example 176, 2-(1-((3S,5R)-3,5-Dimethylpiperazin-1-yl)butyl)-3-methyl-4-oxo-3,4-dihydroquinazoline-7-carbonitrile]",> 500,< 500,,
"CCCC(c1nc2ccc(C#N)cc2c(=O)n1CC)N1C[C@@H](C)N[C@@H](C)C1 (stereo partly drawn) [Example 177, 2-(1-((3S,5R)-3,5-dimethylpiperazin-1-yl)butyl)-3-ethyl-4-oxo-3,4-dihydroquinazoline-6-carbonitrile]",> 500,< 500,,
"CCCC(c1nc2cc(C(=O)O)ccc2c(=O)n1C)N1C[C@@H](C)N[C@@H](C)C1 (stereo partly drawn) [Example 178, 2-(1-((3S,5R)-3,5-Dimethylpiperazin-1-yl)butyl)-3-methyl-4-oxo-3,4-dihydroquinazoline-7-carboxylic acid]",,,> 500,500 to 5000
"CCCC(c1nc2cc(C(=O)O)ccc2c(=O)n1CC)N1C[C@@H](C)N[C@@H](C)C1 (stereo partly drawn) [Example 179, 2-(1-((3S,5R)-3,5-dimethylpiperazin-1-yl)butyl)-3-ethyl-4-oxo-3,4-dihydroquinazoline-7-carboxylic acid]",,,> 500,500 to 5000
"CCCC(c1nc2cc(C(=O)NCc3ccccc3)ccc2c(=O)n1CC)N1C[C@@H](C)N[C@@H](C)C1 (stereo partly drawn) [Example 180, N-Benzyl-2-(1-((3S,5R)-3,5-dimethylpiperazin-1-yl)butyl)-3-ethyl-4-oxo-3,4-dihydroquinazoline-7-carboxamide]",> 500,< 500,,
"CCCC(c1nc2ccc(CN(C)Cc3ccccc3)cc2c(=O)n1CC)N1C[C@@H](C)N[C@@H](C)C1 (stereo partly drawn) [Example 183, 6-((benzyl(methyl)amino)methyl)-2-(1-((3S,5R)-3,5-dimethylpiperazin-1-yl)butyl)-3-ethylquinazolin-4(3H)-one]",> 500,< 500,,
"CCCC(c1nc2ccc(CN(C)CC(C)C)cc2c(=O)n1CC)N1C[C@@H](C)N[C@@H](C)C1 (stereo partly drawn) [Example 184, 2-(1-((3S,5R)-3,5-dimethylpiperazin-1-yl)butyl)-3-ethyl-6-((isobutyl(methyl)amino)methyl)quinazolin-4(3H)-one]",> 500,< 500,,
"CCCC(c1nc2ccc(CN(C)CCC(C)C)cc2c(=O)n1CC)N1C[C@@H](C)N[C@@H](C)C1 (stereo partly drawn) [Example 185, 2-(1-((3S,5R)-3,5-dimethylpiperazin-1-yl)butyl)-3-ethyl-6-((isopentyl(methyl)amino)methyl)quinazolin-4(3H)-one]",> 500,< 500,,
"CCCC(c1nc2cc(CN3CCN(C)CC3)ccc2c(=O)n1C)N1C[C@@H](C)N[C@@H](C)C1 (stereo partly drawn) [Example 186, 2-(1-((3S,5R)-3,5-dimethylpiperazin-1-yl)butyl)-3-methyl-7-((4-methylpiperazin-1-yl)methyl)quinazolin-4(3H)-one]",> 500,< 500,,
"CCCC(c1nc2ccc(Br)cc2c(=O)n1CC)C1CCNCC1 (stereo not drawn) [Example 187, 6-Bromo-3-ethyl-2-(1-(piperidin-4-yl)butyl)quinazolin-4(3H)-one]",,,> 500,500 to 5000
"CCCC(C1=CCNCC1)c1nc2ccc(Br)cc2c(=O)n1CC (stereo not drawn) [Example 188, 6-bromo-3-ethyl-2-(1-(1,2,3,6-tetrahydropyridin-4-yl)butyl)quinazolin-4(3H)-one]",,,> 500,500 to 5000
"CCC[C@@H](c1nc2ccc(Br)cc2c(=O)n1CC)[C@H]1CCN[C@@H](C)C1 [Example 190, 6-Bromo-3-ethyl-2-((R)-1-((2S,4S)-2-methylpiperidin-4-yl)butyl)quinazolin-4(3H)-one]",> 500,> 5000,,
"CCC[C@H](c1nc2ccc(Br)cc2c(=O)n1CC)[C@H]1CCN[C@@H](C)C1 [Example 191, 6-bromo-3-ethyl-2-((S)-1-((2S,4S)-2-methylpiperidin-4-yl)butyl)quinazolin-4(3H)-one]",100 to 500,< 500,,
"CCC[C@@H](c1nc2ccc(Br)cc2c(=O)n1CC)[C@@H]1CCN[C@@H](C)C1 [Example 192, 6-bromo-3-ethyl-2-((R)-1-((2S,4R)-2-methylpiperidin-4-yl)butyl)quinazolin-4(3H)-one]",> 500,> 5000,,
